Measured values reported in a melting point compilation (Tetko et al.; mined from patent text by program, amines drawn as free bases though some values may be those of a salt).

melting point [°C]	SMILES
150	N#Cc1ccc([C@@H]2CN(S(=O)(=O)c3cccc(C(=O)O)c3)C[C@@]23NC(=O)N(c2cc(Cl)cc(Cl)c2)C3=O)cc1 (relative stereo)
176 to 178	CCCn1c(COCC)nc2c(N)nc3ccc(OC4CCNCC4)cc3c21
255	COc1ccc(-c2[nH]nc3c2C(=O)c2c(NC(=O)Cc4ccccc4OC)cccc2-3)cc1
132 to 134	COC(=O)C1=C(C)NC(C)=C(C(=O)OCC2CCC(=O)O2)C1c1ccccc1[N+](=O)[O-] (stereo unspecified)
226 to 227	COc1ccc2c(c1)c(-c1cc3cccnc3[nH]1)cn2C
205 to 206	COc1ccn2nc(-c3ccccc3)c(-c3ccc(=O)n(C(C)C)n3)c2c1Br
122 to 124	Nc1nc2c(c(N3CCN(CCc4ccccc4)CC3)n1)Cc1ccccc1-2
98 to 100	Cc1cccc(C(=O)N[C@@H](CC(C)C)C(=O)N[C@@H](C(C)C)[C@@H](O)c2c(-c3ccccc3)c2=O)n1
192	Cc1cc(C)cc(NCc2ccc3nc(NCCCN4CC(C)OC(C)C4)n(Cc4nc(C)ccc4O)c3c2)c1 (stereo unspecified)
176 to 177	Nc1ccc(C(=O)O)cc1NCc1ccccc1Cl
200 to 205	O=C(O)c1cn(CCc2cccc(C(F)(F)F)c2)c2cc(C3CC3)nn2c1=O
69	CN1CCC(c2c[nH]c3ccc(C(=O)Cc4ccccc4)cc23)CC1
111 to 113	COCCOc1cc(CCC(=O)O)n(Cc2ccc(Cl)cc2Cl)n1
90 to 92	CCCCCCCCNC(=O)NCc1ccc(O)c(OC)c1
202 to 204	COc1ccc(-c2nc(Sc3ccc(Cl)cc3)n(C3CCCCO3)c2-c2ccc(OC)cc2)cc1 (stereo unspecified)
40.1 to 41.4	CC1=C(C(=O)c2ccc3c(c2)CCN(C(N)=O)C3)C(C)(C)CC1
96 to 99	COc1cccc([C@@]23CCC[C@@H]2C(=O)N(C)CCC3)c1 (relative stereo)
175 to 176	CC(C)C[C@H](NC(=O)OCC1c2ccccc2-c2ccccc21)C(=O)N[C@H]1CCOC1=O
139 to 140	CC(=O)SCC(Cc1ccccc1)C(=O)Nc1ccc(C(=O)OCc2ccccc2)cc1 (stereo unspecified)

melting point [°C]	SMILES
105 to 106	O=C(NCCCCCOc1cc(CN2CCCCC2)ccn1)c1cn[nH]c1
233	CC1(C)CCC(C)(C)c2cc(-c3cc(-c4ccc(C(=O)O)cc4)ccc3OCCNC3CC3)ccc21
190 to 191	CCCCN1CCC(NS(=O)(=O)c2ccc(Nc3ccnc4cc(Cl)ccc34)cc2)CC1
138 to 139	COc1ccccc1N1CCN(CC(C(=O)NC(C)(C)C)c2ccccn2)CC1 (stereo unspecified)
113 to 116	COc1cc(N)c(Cl)cc1C(=O)NCC1CCN(CCCCCC(=O)c2ccc3ccccc3c2)CC1
128 to 129	CCCCCC(=O)c1c(CSc2nccn2C)nc2cc(OC)c(OC)cc2c1-c1ccc(OC)c(OC)c1
118 to 119	Nc1ccc(N2CCN(CCC3(Cc4ccc(F)cc4)OCCO3)CC2)nc1N
146 to 148	Fc1ccc(Cn2c(NC3CCN(CCSc4ncccn4)CC3)nc3ccccc32)cc1
140 to 141	CCOC(=O)/C(=C/c1coc2cc(OC)ccc2c1=O)Cc1cc2c(cc1OC)OCO2
134 to 135	NC(=O)N(O)CCOc1ccc2c(c1)CCN(CCCc1ccccc1)S2(=O)=O
220 to 222	COC(=O)COc1ccc(C(=O)NNC(=O)c2ccc(C#N)cc2)cc1
130 to 132	CCCc1c(OCCCCCCc2cccc(O)c2O)ccc(C(=O)O)c1OC(C)=O
189 to 191	COc1ccc(CNC(=O)c2cc([N+](=O)[O-])ccc2N)cc1
161	CNC(=O)NCCN1CCC(Nc2nc3ccccc3n2Cc2ccc(F)cc2)C1 (stereo unspecified)
85 to 87	Cc1ccc(Oc2ccccc2C(=N)NO)c(O)c1
90 to 92	CNC(=O)C(=O)CCCCCCc1cnc(-c2ccc(Br)cc2)o1
166 to 170	COc1ccc(C(N2CCN(c3ncccn3)CC2)N2CCCC2=O)cc1 (stereo unspecified)
245 to 250	NC(=O)Oc1ccccc1-c1nc2cc(F)c(OCc3c(Cl)cccc3Cl)cc2s1

Further lines, the molecule ahead of its results:

SMILES	melting point [°C]
OCc1ccc(OCc2ccccc2)cn1	66 to 68
NCCC(O)c1ccccc1 (stereo unspecified)	92 to 94
CCCc1ccc(-c2c(-c3ccc(S(C)(=O)=O)cc3)cnn(CC(F)(F)F)c2=O)cc1	64 to 66
Cc1ccc2nc3c(nc2c1)SC(=C(C#N)C#N)S3	265 to 267
CCOC(=O)c1[nH]c2sc(Cl)cc2c1Cl	166 to 167
CCC(Cc1ccc(C(C)C(=O)O)cc1)C(C)O (stereo unspecified)	100 to 103
Nc1cccc(-c2cccc(-c3ccnc4c(C(=O)c5cccs5)cnn34)c2)c1	117 to 121
CC(=O)c1ccc(-c2nc(O)c(C)s2)cc1	219 to 220
OCCCNc1ccnc(Cl)n1	113 to 114
CC(Oc1ccc(-c2ccc(C#N)c(C#N)c2)cc1)C(O)CCc1cccnc1 (stereo unspecified)	136 to 137
CCc1nn(C)c(CC)c1NC(N)=S	234 to 235
COc1cc2c(cc1Br)CC=C2CCNC(=O)C(F)(F)F	126 to 129
CC(C)NC(=S)Nc1nc2ccc(OC(F)(F)F)cc2s1	242
Oc1ccc(-c2nn(C3CCCC3)c3c(F)cccc23)cc1	131
COc1nc(Cl)cc2nc(S(=O)(=O)Nc3ccn(C)n3)nn12	185 to 187
CC(C)(Cl)C(=O)c1ccc(C(Br)c2ccc(C(=O)C(C)(C)Cl)cc2)cc1	93
Nc1nccnc1C(=O)N1CCCC1	100 to 105
Cc1nnc2c3[nH]cnc3n(Cc3ccccc3)c(=O)n12	309 to 310
CCc1nnc(CCc2ccc([N+](=O)[O-])cc2)o1	65 to 66
COc1ccc(-c2nc(N)sc2-c2ccncc2)cc1	282 to 284
COC(=O)[C@@H]1Cc2ccccc2N1C(=O)[C@H](CC(=O)O)NC(=O)C(F)(F)F	157 to 158
O=c1occc2ccc(Cl)cc12	110 to 111

SMILES	melting point [°C]
CCn1cc(C(=O)O)c(=O)c2cc(F)c(C3NCC4CCC3N4C)c(F)c21 (stereo unspecified)	184 to 187
OCc1ccc(-c2ccc(OCc3ccccc3)cc2)cc1	194 to 195
CCOC(=O)c1cc2c([nH]1)c(N(C)S(=O)(=O)c1cccs1)cn2CC	122
CSc1cnc(NC(=O)c2cccc(OC(C)=O)c2)s1	135 to 136
CC(C)(C)c1cc(C=C2CCNC2=O)cc(C(C)(C)C)c1O	216 to 218
Nc1c([N+](=O)[O-])cc([N+](=O)[O-])c2c1CCCC2	175 to 176
COCc1c(S(C)(=O)=O)ccc(C(=O)C2SCCCC2=O)c1C (stereo unspecified)	152 to 154
Cn1cc(O)c(=O)c2ccc(F)cc21	283 to 285
O=C(O)[C@H](Cc1ccccc1)Nc1c(NCc2cccnc2)c(=O)c1=O	259 to 261
Clc1cn2cc(Br)ccc2n1	155 to 159
CCN(CC)c1ccc(C2(N(c3ccccc3)c3ccccc3)OC(=O)c3nccnc32)cc1 (stereo unspecified)	140 to 143
O=C1c2cc(Cl)ccc2N(N2CCCCC2)C2=NCCN12	192 to 193
CCn1c(=N)c(-c2c(Cl)cccc2Cl)cc2cnc(SC)nc21	217 to 219
CCN(CC)C(=O)c1sc(Cl)nc1C(F)(F)F	40 to 41
CC1(C)CC(O)CC(C)(C)N1C#N	96 to 98
C[C@]1(Cn2ccnc2)[C@H](C(=O)O)N2C(=O)C[C@H]2S1(=O)=O	161
CC12CCC3c4ccc(O)cc4CC(O)C3C1CCC2O (stereo unspecified)	254 to 257
CC(C)(C)[Si](C)(C)O[C@H]1C=C(I)C(=O)C1	38.5
Cc1cc(O)c(C23CC4CC(CC(C4)C2)C3)cc1-c1cccc(C=C2SC(N3CCOCC3)=NC2=O)c1	327 to 329
Clc1ccc(-n2ccc(OCc3ccccc3Br)n2)cc1	45
Cc1ccc(-c2ccc(Sc3ccccc3)s2)cc1C	77 to 78
O=C(O)c1ccc(-c2ccc(Cl)cc2)c(O)c1	199

SMILES	melting point [°C]
O=C1c2ccccc2-c2c1c1ccccc1c(=O)n2CCCNS(=O)(=O)c1ccc(Br)cc1	241 to 243
Cc1cc(N2CCC3(CC2)OCCO3)c2cc(C)c(-c3ccc(Cl)cc3Cl)n2n1	193 to 196
Cc1cccc(O[C@@H]2CCN(S(C)(=O)=O)CC[C@H]2O)c1C (relative stereo)	112 to 115
O=C(Nc1cccc(-c2ccnc3c(C(=O)c4cccs4)cnn23)c1)c1cnccn1	222 to 224
Clc1ccc2c(c1)C(Br)Cn1cccc1S2 (stereo unspecified)	106 to 107
C[Si](C)(O[Si](C)(C)c1cccnc1F)c1cccnc1F	41 to 42
O=C(OC1CCCCC1)c1ncn2c1[C@@H]1CCN1C(=O)c1cc(F)ccc1-2	231 to 232
CC1=CC(C=O)(NC(c2ccccc2)(c2ccccc2)c2ccccc2)NC=C1 (stereo unspecified)	213
CCN1Cc2cccnc2N(c2cccc(C(F)(F)F)c2)C1=O	155 to 157
CCCCCCCCCCC1COc2c(C(=O)OCC)sc(C(=O)OCC)c2O1 (stereo unspecified)	89 to 90
CCc1ccc(Nc2nc3cc([N+](=O)[O-])ccc3o2)cc1	172 to 173
Cc1ccc(S(=O)(=O)Nc2cc(C3CCCC3)c([N+](=O)[O-])cc2Br)cc1	122
CCCN(CC)c1cc(C)nc(Oc2c(C)cc(C)cc2C)c1C	167 to 169
N#CCCCN1CC=C(c2ccccc2)CC1	57 to 59
COc1cc(C(=O)c2ccccc2)c(O)c2c1C(C)(C)CCC2(C)C	85
CC(=O)N1CCc2ccc(S(=O)(=O)C(F)(F)F)cc2C1	199 to 200
CN(C)CCCC#Cc1cnc(N)nc1	126 to 127
Nc1ccc(S(=O)(=O)Nc2ccc(Cl)c3cc[nH]c23)cn1	204 to 206
O=C1CCCN1[C@@H]1c2cc(C(F)(F)C(F)(F)C(F)(F)F)ccc2OC(CF)(CF)[C@H]1O (relative stereo)	174 to 175
Cc1cccc(N2CCN(c3cc[nH]c(=S)c3C#N)CC2C)c1 (stereo unspecified)	250 to 251
